Values quoted from earlier work, collected in PMC7527728, “CPSF6-Dependent Targeting of Speckle-Associated Domains Distinguishes Primate from Nonprimate Lentiviral Integration” (mBio, 2020).

How the values were obtained:
HIV-1 capsid hexamers = test system: HIV-1 capsid hexamers; parameters: method as in PMID 25518861; settings: more efficiently than the NTD
N74D capsid nanotubes = settings: in vitro
Description: (§1) The 5.2% reduction in genic HIV-1 integration targeting in Jurkat CKD cells was noticeably less than the 22.1% reduction in CKO cells (compare Fig. 4A and Fig. 3A). While the reason for this difference is unclear, it seemed possible that the residual level of CPSF6 protein that persisted in CKD cells (Fig. 2D) could be a contributing factor. We accordingly next mapped integration sites of N74D and A77V capsid mutant viruses in Jurkat T cells. N74D and A77V capsid nanotubes bound CPSF6 ∼5% and 30%, respectively, as efficiently as WT capsid complexes in vitro ([43]).

A77V capsid nanotubes = settings: in vitro, as efficiently as WT capsid
Description: as §1

Row | Substance | binding to capsid hexamers relative to NTD (HIV-1 capsid hexamers) | CPSF6 binding relative to WT capsid complexes (N74D capsid nanotubes) [%] | CPSF6 binding relative to WT capsid complexes (A77V capsid nanotubes) [%]
1 | CPSF6 peptide: CPSF6 peptide binding HIV-1 capsid hexamers, ref 45 | approximately 10 -fold | – | –
2 | CPSF6: cleavage and polyadenylation specificity factor 6 | – | ~5 | ~30
